{"source": "the kinase profiling compilation of Christmann-Franck et al. (2016)", "assay_in_all_cases": "radiometric filter-binding kinase assay", "key": {"AURKA (human)": {"molecular_target": "AURKA (human) (UniProt O14965)", "conditions": "compound 10.0 µM"}, "BRSK2 (human)": {"molecular_target": "BRSK2 (human) (UniProt Q8IWQ3)"}, "CDK2 CCNA2 (human)": {"molecular_target": "CDK2 CCNA2 (human) (UniProt P20248+P24941)"}, "CHEK1 (human)": {"molecular_target": "CHEK1 (human) (UniProt O14757)"}, "CHEK2 (human)": {"molecular_target": "CHEK2 (human) (UniProt O96017)"}, "CLK2 (human)": {"molecular_target": "CLK2 (human) (UniProt P49760)"}, "DAPK1 (human)": {"molecular_target": "DAPK1 (human) (UniProt P53355)"}, "EEF2K (human)": {"molecular_target": "EEF2K (human) (UniProt O00418)"}, "EPHB4 (human)": {"molecular_target": "EPHB4 (human) (UniProt P54760)"}, "ERBB4 (human)": {"molecular_target": "ERBB4 (human) (UniProt Q15303)", "sequence (Q15303 whole entry, looked up)": "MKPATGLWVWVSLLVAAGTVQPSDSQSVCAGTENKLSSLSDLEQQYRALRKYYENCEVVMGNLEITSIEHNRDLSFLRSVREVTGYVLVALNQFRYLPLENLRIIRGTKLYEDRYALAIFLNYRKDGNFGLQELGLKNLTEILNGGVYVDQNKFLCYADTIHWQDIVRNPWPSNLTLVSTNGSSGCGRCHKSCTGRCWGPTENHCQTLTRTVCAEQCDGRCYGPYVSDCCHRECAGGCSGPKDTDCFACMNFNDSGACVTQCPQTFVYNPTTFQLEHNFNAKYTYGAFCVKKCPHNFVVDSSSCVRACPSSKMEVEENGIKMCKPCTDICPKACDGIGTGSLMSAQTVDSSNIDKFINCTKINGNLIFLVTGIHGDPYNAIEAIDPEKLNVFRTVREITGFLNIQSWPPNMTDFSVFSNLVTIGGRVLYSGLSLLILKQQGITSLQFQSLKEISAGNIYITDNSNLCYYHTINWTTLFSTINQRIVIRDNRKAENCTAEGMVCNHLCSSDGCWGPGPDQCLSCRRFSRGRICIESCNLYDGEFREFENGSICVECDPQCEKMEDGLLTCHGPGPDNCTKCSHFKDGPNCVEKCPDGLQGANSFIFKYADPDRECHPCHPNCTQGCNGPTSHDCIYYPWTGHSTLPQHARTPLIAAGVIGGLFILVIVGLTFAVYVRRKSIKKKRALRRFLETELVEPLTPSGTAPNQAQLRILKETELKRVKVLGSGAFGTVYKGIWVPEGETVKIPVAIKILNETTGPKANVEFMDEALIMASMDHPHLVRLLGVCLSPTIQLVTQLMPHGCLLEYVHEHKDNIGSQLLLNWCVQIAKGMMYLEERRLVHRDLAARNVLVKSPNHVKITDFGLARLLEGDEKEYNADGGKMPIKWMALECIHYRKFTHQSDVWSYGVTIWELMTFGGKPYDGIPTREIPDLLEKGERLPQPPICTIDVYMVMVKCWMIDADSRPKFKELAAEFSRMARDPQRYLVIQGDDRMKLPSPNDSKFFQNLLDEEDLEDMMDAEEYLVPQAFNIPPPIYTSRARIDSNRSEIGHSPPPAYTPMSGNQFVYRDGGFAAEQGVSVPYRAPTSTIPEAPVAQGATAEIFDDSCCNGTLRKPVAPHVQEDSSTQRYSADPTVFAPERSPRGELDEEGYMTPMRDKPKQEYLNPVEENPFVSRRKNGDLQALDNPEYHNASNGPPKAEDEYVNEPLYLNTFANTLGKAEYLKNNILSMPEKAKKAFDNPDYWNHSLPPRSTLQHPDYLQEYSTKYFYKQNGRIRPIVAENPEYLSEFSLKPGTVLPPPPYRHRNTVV"}, "FLT1 (human)": {"molecular_target": "FLT1 (human) (UniProt P17948)"}, "GCK (human)": {"molecular_target": "GCK (human) (UniProt Q12851)"}, "HIPK1 (human)": {"molecular_target": "HIPK1 (human) (UniProt Q86Z02)"}, "HIPK3 (human)": {"molecular_target": "HIPK3 (human) (UniProt Q9H422)"}, "JAK2 JH1 JH2 (human)": {"molecular_target": "JAK2 JH1 JH2 (human) (UniProt O60674)", "conditions": "compound 10.0 µM"}, "MAP3K1 (human)": {"molecular_target": "MAP3K1 (human) (UniProt Q13233)", "sequence (Q13233 whole entry, looked up)": "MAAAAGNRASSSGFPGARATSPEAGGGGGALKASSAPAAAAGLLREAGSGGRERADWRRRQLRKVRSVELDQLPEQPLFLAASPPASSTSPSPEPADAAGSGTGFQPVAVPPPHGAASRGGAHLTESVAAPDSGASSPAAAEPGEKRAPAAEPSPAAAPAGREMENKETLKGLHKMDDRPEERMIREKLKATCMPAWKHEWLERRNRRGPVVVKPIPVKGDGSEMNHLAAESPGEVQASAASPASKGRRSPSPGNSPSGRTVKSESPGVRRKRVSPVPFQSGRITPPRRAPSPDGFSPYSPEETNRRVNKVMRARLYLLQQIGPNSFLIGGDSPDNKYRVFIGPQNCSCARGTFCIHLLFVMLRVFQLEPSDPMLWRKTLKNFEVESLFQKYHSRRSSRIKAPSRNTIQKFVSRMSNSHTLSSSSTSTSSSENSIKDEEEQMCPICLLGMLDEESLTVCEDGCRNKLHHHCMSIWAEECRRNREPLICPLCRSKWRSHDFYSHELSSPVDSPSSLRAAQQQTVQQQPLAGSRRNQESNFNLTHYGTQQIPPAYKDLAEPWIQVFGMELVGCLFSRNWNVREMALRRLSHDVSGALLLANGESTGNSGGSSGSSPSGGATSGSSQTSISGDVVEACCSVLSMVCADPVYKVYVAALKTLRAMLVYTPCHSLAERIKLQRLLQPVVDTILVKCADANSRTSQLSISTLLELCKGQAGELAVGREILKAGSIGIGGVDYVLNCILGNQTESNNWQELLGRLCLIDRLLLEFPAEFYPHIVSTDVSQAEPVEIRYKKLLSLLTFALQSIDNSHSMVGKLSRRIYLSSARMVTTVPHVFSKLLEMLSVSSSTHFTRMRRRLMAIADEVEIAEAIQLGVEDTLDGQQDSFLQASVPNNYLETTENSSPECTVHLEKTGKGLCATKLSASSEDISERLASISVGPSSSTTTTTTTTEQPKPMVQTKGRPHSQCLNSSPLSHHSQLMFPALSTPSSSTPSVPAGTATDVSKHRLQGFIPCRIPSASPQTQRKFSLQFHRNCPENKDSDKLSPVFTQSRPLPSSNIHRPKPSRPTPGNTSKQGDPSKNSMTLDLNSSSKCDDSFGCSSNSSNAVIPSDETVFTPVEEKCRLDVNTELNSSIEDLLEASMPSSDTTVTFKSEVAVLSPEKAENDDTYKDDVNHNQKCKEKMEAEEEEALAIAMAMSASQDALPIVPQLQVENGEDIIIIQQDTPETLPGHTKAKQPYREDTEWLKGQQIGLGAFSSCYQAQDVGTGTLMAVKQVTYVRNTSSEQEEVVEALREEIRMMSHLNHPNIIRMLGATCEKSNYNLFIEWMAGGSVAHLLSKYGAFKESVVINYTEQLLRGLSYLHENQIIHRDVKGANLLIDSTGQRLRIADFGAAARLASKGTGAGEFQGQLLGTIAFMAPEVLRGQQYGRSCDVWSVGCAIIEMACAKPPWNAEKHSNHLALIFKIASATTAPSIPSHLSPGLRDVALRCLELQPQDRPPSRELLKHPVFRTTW"}, "MAP3K5 (human)": {"molecular_target": "MAP3K5 (human) (UniProt Q99683)", "conditions": "compound 10.0 µM"}, "MAPK1 (human)": {"molecular_target": "MAPK1 (human) (UniProt P28482)", "conditions": "compound 1.0 µM"}, "MAPK3 (human)": {"molecular_target": "MAPK3 (human) (UniProt P27361)", "conditions": "compound 10.0 µM"}, "MARK3 (human)": {"molecular_target": "MARK3 (human) (UniProt P27448)"}, "MARK4 (human)": {"molecular_target": "MARK4 (human) (UniProt Q96L34)"}, "MST4 (human)": {"molecular_target": "MST4 (human) (UniProt Q9P289)", "sequence (Q9P289 whole entry, looked up)": "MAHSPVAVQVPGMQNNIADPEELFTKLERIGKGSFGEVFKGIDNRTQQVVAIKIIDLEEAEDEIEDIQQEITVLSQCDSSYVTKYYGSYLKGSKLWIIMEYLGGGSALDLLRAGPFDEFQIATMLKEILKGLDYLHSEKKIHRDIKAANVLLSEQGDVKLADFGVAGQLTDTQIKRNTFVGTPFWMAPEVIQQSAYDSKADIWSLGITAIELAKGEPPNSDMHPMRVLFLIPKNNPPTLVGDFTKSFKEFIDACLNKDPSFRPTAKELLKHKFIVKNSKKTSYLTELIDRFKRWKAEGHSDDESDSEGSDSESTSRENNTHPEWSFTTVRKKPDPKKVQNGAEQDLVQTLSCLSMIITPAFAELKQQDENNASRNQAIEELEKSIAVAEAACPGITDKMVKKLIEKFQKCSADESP"}, "NTRK1 (human)": {"molecular_target": "NTRK1 (human) (UniProt P04629)", "conditions": "compound 1.0 µM"}, "NUAK1 (human)": {"molecular_target": "NUAK1 (human) (UniProt O60285)"}, "PAK6 (human)": {"molecular_target": "PAK6 (human) (UniProt Q9NQU5)"}, "PLK1 (human)": {"molecular_target": "PLK1 (human) (UniProt P53350)"}, "PRKCA (human)": {"molecular_target": "PRKCA (human) (UniProt P17252)"}, "PRKCZ (human)": {"molecular_target": "PRKCZ (human) (UniProt Q05513)"}, "RPS6KA1 KD1 KD2 (human)": {"molecular_target": "RPS6KA1 KD1 KD2 (human) (UniProt Q15418)"}, "RPS6KA3 KD1 KD2 (human)": {"molecular_target": "RPS6KA3 KD1 KD2 (human) (UniProt P51812)"}, "RPS6KA5 KD1 KD2 (human)": {"molecular_target": "RPS6KA5 KD1 KD2 (human) (UniProt O75582)"}, "[1]": {"test_system": "SGK1 (human), O00141 [S422D]", "sequence (O00141 whole entry S422D, looked up)": "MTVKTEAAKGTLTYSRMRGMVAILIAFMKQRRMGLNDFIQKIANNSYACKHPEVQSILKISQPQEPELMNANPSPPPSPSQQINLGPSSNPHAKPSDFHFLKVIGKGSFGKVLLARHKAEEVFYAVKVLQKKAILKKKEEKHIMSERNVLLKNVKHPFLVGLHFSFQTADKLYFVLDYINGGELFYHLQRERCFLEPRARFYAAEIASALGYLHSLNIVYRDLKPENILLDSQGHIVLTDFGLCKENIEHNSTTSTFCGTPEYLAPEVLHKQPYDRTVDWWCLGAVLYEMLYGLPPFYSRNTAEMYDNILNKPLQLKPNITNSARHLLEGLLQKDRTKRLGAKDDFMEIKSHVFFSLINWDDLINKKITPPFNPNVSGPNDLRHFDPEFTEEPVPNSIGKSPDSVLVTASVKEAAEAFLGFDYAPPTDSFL"}, "SRC (human)": {"molecular_target": "SRC (human) (UniProt P12931)"}, "STK3 (human)": {"molecular_target": "STK3 (human) (UniProt Q13188)", "sequence (Q13188 whole entry, looked up)": "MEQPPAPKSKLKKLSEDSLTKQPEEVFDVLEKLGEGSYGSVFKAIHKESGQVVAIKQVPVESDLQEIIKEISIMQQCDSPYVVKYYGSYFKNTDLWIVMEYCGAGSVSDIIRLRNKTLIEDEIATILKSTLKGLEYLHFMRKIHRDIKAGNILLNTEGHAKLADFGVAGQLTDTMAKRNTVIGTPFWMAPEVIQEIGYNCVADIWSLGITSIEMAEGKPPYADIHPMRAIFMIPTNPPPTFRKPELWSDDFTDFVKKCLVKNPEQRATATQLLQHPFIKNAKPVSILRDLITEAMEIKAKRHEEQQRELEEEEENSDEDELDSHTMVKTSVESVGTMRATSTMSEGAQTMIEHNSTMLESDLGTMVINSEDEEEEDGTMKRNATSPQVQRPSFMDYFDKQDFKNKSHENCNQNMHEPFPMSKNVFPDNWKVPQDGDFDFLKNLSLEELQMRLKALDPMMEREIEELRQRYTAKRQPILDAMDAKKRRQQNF"}, "TAOK1 (human)": {"molecular_target": "TAOK1 (human) (UniProt Q7L7X3)"}}, "data": [{"smiles": "Cc1nc(-c2ccc(OCC(C)C)c(C#N)c2)sc1C(=O)O", "values": [{"measurement": "residual activity", "setting": "AURKA (human)", "result": 94, "unit": "%"}, {"measurement": "residual activity", "setting": "BRSK2 (human); compound 1.0 µM", "result": 100, "unit": "%"}, {"measurement": "residual activity", "setting": "BRSK2 (human); compound 10.0 µM", "result": 86, "unit": "%"}, {"measurement": "residual activity", "setting": "CDK2 CCNA2 (human); compound 1.0 µM", "result": 106, "unit": "%"}, {"measurement": "residual activity", "setting": "CDK2 CCNA2 (human); compound 10.0 µM", "result": 106, "unit": "%"}, {"measurement": "residual activity", "setting": "CHEK1 (human); compound 1.0 µM", "result": 85, "unit": "%"}, {"measurement": "residual activity", "setting": "CHEK1 (human); compound 10.0 µM", "result": 86, "unit": "%"}, {"measurement": "residual activity", "setting": "CHEK2 (human); compound 1.0 µM", "result": 101, "unit": "%"}, {"measurement": "residual activity", "setting": "CHEK2 (human); compound 10.0 µM", "result": 60, "unit": "%"}, {"measurement": "residual activity", "setting": "CLK2 (human); compound 1.0 µM", "result": 81, "unit": "%"}, {"measurement": "residual activity", "setting": "CLK2 (human); compound 10.0 µM", "result": 77, "unit": "%"}, {"measurement": "residual activity", "setting": "DAPK1 (human); compound 1.0 µM", "result": 85, "unit": "%"}, {"measurement": "residual activity", "setting": "DAPK1 (human); compound 10.0 µM", "result": 60, "unit": "%"}, {"measurement": "residual activity", "setting": "EEF2K (human); compound 1.0 µM", "result": 102, "unit": "%"}, {"measurement": "residual activity", "setting": "EEF2K (human); compound 10.0 µM", "result": 95, "unit": "%"}, {"measurement": "residual activity", "setting": "EPHB4 (human); compound 1.0 µM", "result": 93, "unit": "%"}, {"measurement": "residual activity", "setting": "EPHB4 (human); compound 10.0 µM", "result": 79, "unit": "%"}, {"measurement": "residual activity", "setting": "ERBB4 (human); compound 1.0 µM", "result": 102, "unit": "%"}, {"measurement": "residual activity", "setting": "ERBB4 (human); compound 10.0 µM", "result": 103, "unit": "%"}, {"measurement": "residual activity", "setting": "FLT1 (human); compound 1.0 µM", "result": 83, "unit": "%"}, {"measurement": "residual activity", "setting": "FLT1 (human); compound 10.0 µM", "result": 71, "unit": "%"}, {"measurement": "residual activity", "setting": "GCK (human); compound 1.0 µM", "result": 85, "unit": "%"}, {"measurement": "residual activity", "setting": "GCK (human); compound 10.0 µM", "result": 86, "unit": "%"}, {"measurement": "residual activity", "setting": "HIPK1 (human); compound 1.0 µM", "result": 90, "unit": "%"}, {"measurement": "residual activity", "setting": "HIPK1 (human); compound 10.0 µM", "result": 95, "unit": "%"}, {"measurement": "residual activity", "setting": "HIPK3 (human); compound 1.0 µM", "result": 108, "unit": "%"}, {"measurement": "residual activity", "setting": "HIPK3 (human); compound 10.0 µM", "result": 119, "unit": "%"}, {"measurement": "residual activity", "setting": "JAK2 JH1 JH2 (human)", "result": 83, "unit": "%"}, {"measurement": "residual activity", "setting": "MAP3K1 (human); compound 1.0 µM", "result": 106, "unit": "%"}, {"measurement": "residual activity", "setting": "MAP3K1 (human); compound 10.0 µM", "result": 96, "unit": "%"}, {"measurement": "residual activity", "setting": "MAP3K5 (human)", "result": 127, "unit": "%"}, {"measurement": "residual activity", "setting": "MAPK1 (human)", "result": 105, "unit": "%"}, {"measurement": "residual activity", "setting": "MAPK3 (human)", "result": 95, "unit": "%"}, {"measurement": "residual activity", "setting": "MARK3 (human); compound 1.0 µM", "result": 91, "unit": "%"}, {"measurement": "residual activity", "setting": "MARK3 (human); compound 10.0 µM", "result": 87, "unit": "%"}, {"measurement": "residual activity", "setting": "MARK4 (human); compound 1.0 µM", "result": 96, "unit": "%"}, {"measurement": "residual activity", "setting": "MARK4 (human); compound 10.0 µM", "result": 85, "unit": "%"}, {"measurement": "residual activity", "setting": "MST4 (human); compound 1.0 µM", "result": 94, "unit": "%"}, {"measurement": "residual activity", "setting": "MST4 (human); compound 10.0 µM", "result": 90, "unit": "%"}, {"measurement": "residual activity", "setting": "NTRK1 (human)", "result": 88, "unit": "%"}, {"measurement": "residual activity", "setting": "NUAK1 (human); compound 1.0 µM", "result": 95, "unit": "%"}, {"measurement": "residual activity", "setting": "NUAK1 (human); compound 10.0 µM", "result": 73, "unit": "%"}, {"measurement": "residual activity", "setting": "PAK6 (human); compound 1.0 µM", "result": 97, "unit": "%"}, {"measurement": "residual activity", "setting": "PAK6 (human); compound 10.0 µM", "result": 107, "unit": "%"}, {"measurement": "residual activity", "setting": "PLK1 (human); compound 1.0 µM", "result": 94, "unit": "%"}, {"measurement": "residual activity", "setting": "PLK1 (human); compound 10.0 µM", "result": 91, "unit": "%"}, {"measurement": "residual activity", "setting": "PRKCA (human); compound 1.0 µM", "result": 94, "unit": "%"}, {"measurement": "residual activity", "setting": "PRKCA (human); compound 10.0 µM", "result": 92, "unit": "%"}, {"measurement": "residual activity", "setting": "PRKCZ (human); compound 1.0 µM", "result": 93, "unit": "%"}, {"measurement": "residual activity", "setting": "PRKCZ (human); compound 10.0 µM", "result": 96, "unit": "%"}, {"measurement": "residual activity", "setting": "RPS6KA1 KD1 KD2 (human); compound 1.0 µM", "result": 92, "unit": "%"}, {"measurement": "residual activity", "setting": "RPS6KA1 KD1 KD2 (human); compound 10.0 µM", "result": 84, "unit": "%"}, {"measurement": "residual activity", "setting": "RPS6KA3 KD1 KD2 (human); compound 1.0 µM", "result": 99, "unit": "%"}, {"measurement": "residual activity", "setting": "RPS6KA3 KD1 KD2 (human); compound 10.0 µM", "result": 92, "unit": "%"}, {"measurement": "residual activity", "setting": "RPS6KA5 KD1 KD2 (human); compound 1.0 µM", "result": 94, "unit": "%"}, {"measurement": "residual activity", "setting": "RPS6KA5 KD1 KD2 (human); compound 10.0 µM", "result": 102, "unit": "%"}, {"measurement": "residual activity", "setting": "[1]; compound 1.0 µM", "result": 99, "unit": "%"}, {"measurement": "residual activity", "setting": "[1]; compound 10.0 µM", "result": 98, "unit": "%"}, {"measurement": "residual activity", "setting": "SRC (human); compound 1.0 µM", "result": 97, "unit": "%"}, {"measurement": "residual activity", "setting": "SRC (human); compound 10.0 µM", "result": 78, "unit": "%"}, {"measurement": "residual activity", "setting": "STK3 (human); compound 1.0 µM", "result": 73, "unit": "%"}, {"measurement": "residual activity", "setting": "STK3 (human); compound 10.0 µM", "result": 75, "unit": "%"}, {"measurement": "residual activity", "setting": "TAOK1 (human); compound 1.0 µM", "result": 105, "unit": "%"}, {"measurement": "residual activity", "setting": "TAOK1 (human); compound 10.0 µM", "result": 101, "unit": "%"}]}]}
